Test results from PubChem BioAssay (NCI).
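Method: 48-hour compound exposure of cells in 96-well plates, five concentrations, linear interpolation of endpoints. The concentration for full growth arrest is given as TGI.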

What was measured:
Assay in all cases: NCI-60 cell line screen, 48 h
[1] = test system: 786-0 renal
[2] = test system: A498 renal
[3] = test system: BT-549 breast
[4] = test system: COLO 205 colon
[5] = test system: EKVX NSCLC
[6] = test system: HS 578T breast
[7] = test system: K-562 leukemia
[8] = test system: LOX IMVI melanoma
[9] = test system: MCF7 breast
[10] = test system: MDA-MB-231 breast
[11] = test system: MOLT-4 leukemia
[12] = test system: NCI-H23 lung
[13] = test system: OVCAR-4 ovarian
[14] = test system: OVCAR-5 ovarian
[15] = test system: RPMI-8226 leukemia
[16] = test system: SF-268 CNS
[17] = test system: SNB-19 CNS
[18] = test system: U251 CNS
[19] = test system: UO-31 renal

`CCCCCCCCCCCCN(CC(O)C(O)C(OC1OC(CO)C(O)C(O)C1O)C(O)CO)C(=O)CCCCCCCCCCC` (stereo not drawn) showed a TGI [1] of 33.8 µM, a TGI [2] of 41.8 µM and a TGI [3] of 40.4 µM. It also gave a TGI [4] of 35.3 µM, a TGI [5] of 34.4 µM and a TGI [6] of 82.7 µM. The TGI [7] was 35.5 µM, the TGI [8] was 41.3 µM and the TGI [9] was over 100 µM. For the same compound, the TGI [10] was 42.7 µM, the TGI [11] was 50.1 µM and the TGI [12] was 46.2 µM. The TGI [13] was 44.5 µM, the TGI [14] was over 100 µM and the TGI [15] was 50.9 µM. It also gave a TGI [16] of 43.6 µM, a TGI [17] of 35.4 µM and a TGI [18] of 32.6 µM. For the same compound, the TGI [19] was 45.8 µM.

Work on `COc1cc(/C=C2/SC(c3ccccc3)N(c3ccccc3Cl)C2=O)cc(OC)c1OC` (stereo not drawn) yielded a TGI [1] of over 100 µM, a TGI [2] of over 100 µM and a TGI [3] of 85.1 µM. For the same compound, the TGI [4] was 95.5 µM, the TGI [5] was over 100 µM and the TGI [6] was over 100 µM. It also gave a TGI [7] of over 100 µM, a TGI [8] of 41.7 µM and a TGI [9] of over 100 µM. It also gave a TGI [10] of over 100 µM, a TGI [11] of 68.2 µM and a TGI [12] of 81.7 µM. For the same compound, the TGI [13] was over 100 µM, the TGI [14] was over 100 µM and the TGI [15] was 52.3 µM. For the same compound, the TGI [16] was over 100 µM, the TGI [17] was over 100 µM and the TGI [18] was 67.8 µM. For the same compound, the TGI [19] was over 100 µM.

With `CC1(C)C2CCC(CN)(C2)C1N` (stereo not drawn) the TGI [1] was over 100 µM, the TGI [2] was over 100 µM and the TGI [3] was over 100 µM. It also gave a TGI [4] of over 100 µM, a TGI [5] of over 100 µM and a TGI [6] of over 100 µM. The TGI [7] was over 100 µM, the TGI [8] was over 100 µM and the TGI [9] was over 100 µM. For the same compound, the TGI [10] was over 100 µM, the TGI [11] was over 100 µM and the TGI [12] was over 100 µM. The TGI [13] was over 100 µM, the TGI [14] was over 100 µM and the TGI [15] was over 100 µM. The TGI [16] was over 100 µM, the TGI [17] was over 100 µM and the TGI [18] was over 100 µM. The TGI [19] was over 100 µM.

`CCC/C=C/c1cc2c(cc1O)CC[C@@H]1[C@@H]2CC[C@]2(C)[C@@H](O)CC[C@@H]12` showed a TGI [1] of 30.1 µM, a TGI [2] of 31.8 µM and a TGI [3] of 36.1 µM. For the same compound, the TGI [4] was 36.5 µM, the TGI [5] was 41.2 µM and the TGI [6] was 57.6 µM. The TGI [7] was 45.5 µM, the TGI [8] was 29.3 µM and the TGI [9] was 52.6 µM. The TGI [10] was 33.7 µM, the TGI [11] was 42.5 µM and the TGI [12] was 35.9 µM. The TGI [13] was 44.9 µM, the TGI [14] was 35.1 µM and the TGI [15] was 37.5 µM. The TGI [16] was 42.6 µM, the TGI [17] was over 56.6 µM and the TGI [18] was 30.6 µM. For the same compound, the TGI [19] was 31 µM.

`CCOC(=O)C1(Cc2ccccc2)C=CN(C(=O)c2ccccc2)C=C1` was tested, and the TGI [1] was over 100 µM, the TGI [2] was 74.3 µM and the TGI [3] was over 100 µM. It also gave a TGI [4] of 37.5 µM, a TGI [5] of over 100 µM and a TGI [6] of over 100 µM. For the same compound, the TGI [7] was over 100 µM, the TGI [8] was over 100 µM and the TGI [9] was over 100 µM. It also gave a TGI [10] of over 100 µM, a TGI [11] of 73.6 µM and a TGI [12] of over 100 µM. The TGI [13] was over 100 µM, the TGI [14] was over 100 µM and the TGI [15] was 48.6 µM. For the same compound, the TGI [16] was over 100 µM, the TGI [17] was over 100 µM and the TGI [18] was over 100 µM. It also gave a TGI [19] of over 100 µM.

With `O=C(O)c1ccccc1/C=N/NC1=NCCN1` the TGI [1] was over 100 µM, the TGI [2] was over 100 µM and the TGI [3] was over 100 µM. For the same compound, the TGI [4] was over 100 µM, the TGI [5] was over 100 µM and the TGI [6] was over 100 µM. For the same compound, the TGI [7] was over 100 µM, the TGI [8] was over 100 µM and the TGI [9] was over 100 µM. For the same compound, the TGI [10] was over 100 µM, the TGI [11] was over 100 µM and the TGI [12] was over 100 µM. The TGI [13] was over 100 µM, the TGI [14] was over 100 µM and the TGI [15] was over 100 µM. For the same compound, the TGI [16] was over 100 µM, the TGI [17] was over 100 µM and the TGI [18] was over 100 µM. For the same compound, the TGI [19] was over 100 µM.

With `COC(=O)CC(c1cn(S(=O)(=O)c2ccc(C)cc2)c2ccccc12)C1C[C@@H](C(=O)OC)N(C(=O)OC(C)(C)C)C1=O` (stereo partly drawn) the TGI [1] was over 100 µM, the TGI [2] was over 100 µM and the TGI [3] was over 100 µM. It also gave a TGI [4] of 86.6 µM, a TGI [5] of over 100 µM and a TGI [6] of over 100 µM. The TGI [7] was over 100 µM, the TGI [8] was over 100 µM and the TGI [9] was over 100 µM. The TGI [10] was over 100 µM, the TGI [11] was 21 µM and the TGI [12] was over 100 µM. For the same compound, the TGI [13] was over 100 µM, the TGI [14] was over 100 µM and the TGI [15] was 35.4 µM. It also gave a TGI [16] of over 100 µM, a TGI [17] of over 100 µM and a TGI [18] of over 100 µM. The TGI [19] was over 100 µM.

Work on `Cc1cc2cc3c(cc2c(-c2ccc([N+](=O)[O-])cc2)n1)OCO3` yielded a TGI [1] of 42.5 µM, a TGI [2] of over 100 µM and a TGI [3] of 73.7 µM. The TGI [4] was over 100 µM, the TGI [5] was over 100 µM and the TGI [6] was over 100 µM. The TGI [7] was over 100 µM, the TGI [8] was over 100 µM and the TGI [9] was over 100 µM. It also gave a TGI [10] of 84.4 µM, a TGI [11] of over 100 µM and a TGI [12] of over 100 µM. For the same compound, the TGI [13] was 56.8 µM, the TGI [14] was over 100 µM and the TGI [15] was over 100 µM. For the same compound, the TGI [16] was over 100 µM, the TGI [17] was over 100 µM and the TGI [18] was over 100 µM. It also gave a TGI [19] of over 100 µM.

`O=S(=O)(SC1=NCCN1)c1ccc2ccccc2c1` gave a TGI [1] of 97.1 µM, a TGI [2] of over 100 µM and a TGI [3] of 83.9 µM. For the same compound, the TGI [4] was 37.7 µM, the TGI [5] was over 100 µM and the TGI [6] was over 100 µM. For the same compound, the TGI [7] was 55 µM, the TGI [8] was over 100 µM and the TGI [9] was over 100 µM. The TGI [10] was 42.9 µM, the TGI [11] was 56.8 µM and the TGI [12] was 61.8 µM. The TGI [13] was over 100 µM, the TGI [14] was 49.6 µM and the TGI [15] was 64 µM. It also gave a TGI [16] of 52.5 µM, a TGI [17] of 39.1 µM and a TGI [18] of 54.1 µM. The TGI [19] was over 100 µM.

In the case of `CC(C)(C)OC(=O)CN1C(=O)CC1CC(=O)c1ccccc1` (stereo not drawn), the TGI [1] is reported as 32.9 µM, the TGI [2] is reported as 64 µM and the TGI [3] is reported as 35.5 µM. The TGI [4] was 49.6 µM, the TGI [5] was 35.7 µM and the TGI [6] was 84.2 µM. The TGI [7] was 34.2 µM, the TGI [8] was 31.3 µM and the TGI [9] was 36.1 µM. It also gave a TGI [10] of 31.1 µM, a TGI [11] of 25.3 µM and a TGI [12] of 36.5 µM. For the same compound, the TGI [13] was over 100 µM, the TGI [14] was 36.8 µM and the TGI [15] was 15.3 µM. It also gave a TGI [16] of 37.7 µM, a TGI [17] of 41.9 µM and a TGI [18] of 29.4 µM. It also gave a TGI [19] of 31.4 µM.

`O=c1[nH]nc(-c2ccccc2)n1/N=C/c1ccc([N+](=O)[O-])cc1` was tested, and the TGI [1] was 22.9 µM, the TGI [2] was 49.7 µM and the TGI [3] was over 100 µM. The TGI [4] was over 100 µM, the TGI [5] was over 100 µM and the TGI [6] was 98.2 µM. It also gave a TGI [7] of over 100 µM, a TGI [8] of over 100 µM and a TGI [9] of over 100 µM. For the same compound, the TGI [10] was over 63.8 µM, the TGI [11] was over 100 µM and the TGI [12] was over 100 µM. It also gave a TGI [13] of over 100 µM, a TGI [14] of over 100 µM and a TGI [15] of over 100 µM. The TGI [16] was over 87.2 µM, the TGI [17] was over 100 µM and the TGI [18] was 20.8 µM. It also gave a TGI [19] of over 38.1 µM.

Work on `O=c1oc2ccccc2cc1-c1csc(Nc2ccc(F)cc2)n1` yielded a TGI [1] of 3.17 µM, a TGI [2] of 5.09 µM and a TGI [3] of 17.4 µM. For the same compound, the TGI [4] was 14.9 µM, the TGI [5] was 8.63 µM and the TGI [6] was 4.61 µM. For the same compound, the TGI [7] was 20.6 µM, the TGI [8] was 14.9 µM and the TGI [9] was 15.5 µM. The TGI [10] was 26 µM, the TGI [11] was over 25.4 µM and the TGI [12] was 11 µM. It also gave a TGI [13] of over 36 µM, a TGI [14] of 20.9 µM and a TGI [15] of 4.44 µM. For the same compound, the TGI [16] was 9.09 µM, the TGI [17] was over 37.6 µM and the TGI [18] was 9.55 µM. It also gave a TGI [19] of 6.42 µM.
